From patent US20230339970A1, “CASEIN KINASE 1 DELTA MODULATORS” (priority 2020, published 2023)

How the values were obtained:
human CSNK1D = biological target: T1, human CSNK1D (Homo sapiens, UniProt P48730); test: Whole Cell nBRET CSNK1D Binding Assay; conditions: living CHO cells stably expressing human CSNK1D tagged with nanoluciferase; NanoBret tracer 130 nM; 2 hours at 37 C
T1 construct: expressed in transfected cells

[1] = biological target: T2, human recombinant GST cleaved CSNK1D (Homo sapiens, UniProt P48730); test: Purified Enzyme Assay (ADP-Glo CSNK1D Kinase Assay); assay type: biochemical; conditions: 2 nM CSNK1D; peptide substrate 150 μM; ATP 20 μM; 45 minutes at room temperature
T2 construct: GST (cleaved yes); purchased University of Dundee clone DU 19064
Procedure, shortened: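 GST-cleaved human recombinant CSNK1D phosphorylates peptide PLSRTL-pS-VASLPGL with ATP; compounds added in dose-response, 45 min at room temperature. ADP formed measured by ADP-Glo luminescence and converted to percent activity.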

T1 sequence (P48730 whole entry): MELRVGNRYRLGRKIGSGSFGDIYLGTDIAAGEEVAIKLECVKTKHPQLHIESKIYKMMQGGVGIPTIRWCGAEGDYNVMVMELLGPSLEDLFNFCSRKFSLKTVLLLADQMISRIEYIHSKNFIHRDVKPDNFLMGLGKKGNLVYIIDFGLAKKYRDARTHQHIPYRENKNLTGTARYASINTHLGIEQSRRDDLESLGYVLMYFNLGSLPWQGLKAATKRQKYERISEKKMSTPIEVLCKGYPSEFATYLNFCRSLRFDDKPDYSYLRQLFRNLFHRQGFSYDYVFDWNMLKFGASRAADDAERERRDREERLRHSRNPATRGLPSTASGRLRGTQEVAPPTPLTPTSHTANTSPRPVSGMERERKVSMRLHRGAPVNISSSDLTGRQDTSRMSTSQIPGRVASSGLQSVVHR
T2 sequence (P48730 whole entry): as above

Row | Compound | IC50 (human CSNK1D) | IC50 [1]
1 | COCC1(F)CCc2c(-c3c(F)cnc4[nH]ncc34)c(-c3ccc(F)cn3)nn2C1 (single isomer, unassigned) [Example 303, (*R)-5-Fluoro-4-[6-fluoro-2-(5-fluoro-2-pyridyl)-6-(methoxymethyl)-5,7-dihydro-4H-pyrazolo[1,5-a]pyridin-3-yl]-1H-pyrazolo[3,4-b]pyridine] | 180 nM | 9 nM
2 | COC[C@]1(F)CCc2c(-c3cc(C)nc4[nH]ncc34)c(-c3ccc(F)cn3)nn2C1 (single isomer, unassigned) [Example 304, (*S)-4-[6-Fluoro-2-(5-fluoro-2-pyridyl)-6-(methoxymethyl)-5,7-dihydro-4H-pyrazolo[1,5-a]pyridin-3-yl]-6-methyl-1H-pyrazolo[3,4-b]pyridine] | 34 nM | 4 nM
3 | COCC1(F)CCc2c(-c3cc(C)nc4[nH]ncc34)c(-c3ccc(F)cn3)nn2C1 (single isomer, unassigned) [Example 305, (*R)-4-[6-Fluoro-2-(5-fluoro-2-pyridyl)-6-(methoxymethyl)-5,7-dihydro-4H-pyrazolo[1,5-a]pyridin-3-yl]-6-methyl-1H-pyrazolo[3,4-b]pyridine] | 2850 nM | 89 nM
4 | COCC1(F)CCc2c(-c3cc(C(F)F)nc4[nH]ncc34)c(-c3ccc(F)cn3)nn2C1 (single isomer, unassigned) [Example 306, (*S)-6-(Difluoromethyl)-4-[6-fluoro-2-(5-fluoro-2-pyridyl)-6-(methoxymethyl)-5,7-dihydro-4H-pyrazolo[1,5-a]pyridin-3-yl]-1H-pyrazolo[3,4-b]pyridine] | 68 nM | 8 nM
5 | COCC1(F)CCc2c(-c3cc(C(F)F)nc4[nH]ncc34)c(-c3ccc(F)cn3)nn2C1 (single isomer, unassigned) [Example 307, (*R)-6-(Difluoromethyl)-4-[6-fluoro-2-(5-fluoro-2-pyridyl)-6-(methoxymethyl)-5,7-dihydro-4H-pyrazolo[1,5-a]pyridin-3-yl]-1H-pyrazolo[3,4-b]pyridine] | > 10000 nM | 183 nM
6 | COCC1(F)CCc2c(-c3c(F)c(C)nc4[nH]ncc34)c(-c3ccc(F)cn3)nn2C1 (single isomer, unassigned) [Example 308, (*S)-5-Fluoro-4-[6-fluoro-2-(5-fluoro-2-pyridyl)-6-(methoxymethyl)-5,7-dihydro-4H-pyrazolo[1,5-a]pyridin-3-yl]-6-methyl-1H-pyrazolo[3,4-b]pyridine] | 34 nM | 6 nM
7 | COCC1(F)CCc2c(-c3c(F)c(C)nc4[nH]ncc34)c(-c3ccc(F)cn3)nn2C1 (single isomer, unassigned) [Example 309, (*R)-5-Fluoro-4-[6-fluoro-2-(5-fluoro-2-pyridyl)-6-(methoxymethyl)-5,7-dihydro-4H-pyrazolo[1,5-a]pyridin-3-yl]-6-methyl-1H-pyrazolo[3,4-b]pyridine] | 1320 nM | 97 nM
8 | [2H]C([2H])([2H])OC[C@]1(F)CCc2c(-c3cc(C)nc4[nH]ncc34)c(-c3ccc(F)cn3)nn2C1 (single isomer, unassigned) [Example 310, (*S)-4-(6-Fluoro-2-(5-fluoropyridin-2-yl)-6-((methoxy-d3)methyl)-4,5,6,7-tetrahydropyrazolo[1,5-a]pyridin-3-yl)-6-methyl-1H-pyrazolo[3,4-b]pyridine] | 34 nM | 3 nM
9 | [2H]C([2H])([2H])OC[C@@]1(F)CCc2c(-c3cc(C)nc4[nH]ncc34)c(-c3ccc(F)cn3)nn2C1 (single isomer, unassigned) [Example 311, (*R)-4-(6-Fluoro-2-(5-fluoropyridin-2-yl)-6-((methoxy-d3)methyl)-4,5,6,7-tetrahydropyrazolo[1,5-a]pyridin-3-yl)-6-methyl-1H-pyrazolo[3,4-b]pyridine] | 1410 nM | 92 nM
10 | [2H]C([2H])([2H])OC([2H])([2H])[C@]1(F)CCc2c(-c3cc(C)nc4[nH]ncc34)c(-c3ccc(F)cn3)nn2C1 (single isomer, unassigned) [Example 312, (*S)-4-[6-[(Methoxy-d3)methyl-d2]-6-fluoro-2-(5-fluoro-2-pyridyl)-5,7-dihydro-4H-pyrazolo[1,5-a]pyridin-3-yl]-6-methyl-1H-pyrazolo[3,4-b]pyridine] | 39 nM | 4 nM
11 | [2H]C([2H])([2H])OC([2H])([2H])[C@@]1(F)CCc2c(-c3cc(C)nc4[nH]ncc34)c(-c3ccc(F)cn3)nn2C1 (single isomer, unassigned) [Example 313, (*R)-4-[6-[(Methoxy-d3)methyl-d2]-6-fluoro-2-(5-fluoro-2-pyridyl)-5,7-dihydro-4H-pyrazolo[1,5-a]pyridin-3-yl]-6-methyl-1H-pyrazolo[3,4-b]pyridine] | 5120 nM | 102 nM
12 | Fc1ccc(-c2nn3c(c2-c2ccnc4[nH]ncc24)CCC(F)(COC(F)F)C3)nc1 (single isomer, unassigned) [Example 314, (*S)-4-(6-((Difluoromethoxy)methyl)-6-fluoro-2-(5-fluoropyridin-2-yl)-4,5,6,7-tetrahydropyrazolo[1,5-a]pyridin-3-yl)-1H-pyrazolo[3,4-b]pyridine] | 14 nM | 4 nM
13 | Fc1ccc(-c2nn3c(c2-c2ccnc4[nH]ncc24)CCC(F)(COC(F)F)C3)nc1 (single isomer, unassigned) [Example 315, (*R)-4-(6-((Difluoromethoxy)methyl)-6-fluoro-2-(5-fluoropyridin-2-yl)-4,5,6,7-tetrahydropyrazolo[1,5-a]pyridin-3-yl)-1H-pyrazolo[3,4-b]pyridine] | 1880 nM | 73 nM
14 | Fc1ccc(-c2nn3c(c2-c2ccnc4[nH]ncc24)CCC(F)(COC(F)(F)F)C3)nc1 (single isomer, unassigned) [Example 316, (*S)-4-[6-Fluoro-2-(5-fluoro-2-pyridyl)-6-(rifluoromethoxymethyl)-5,7-dihydro-4H-pyrazolo[1,5-a]pyridin-3-yl]-1H-pyrazolo[3,4-b]pyridine] | 54 nM | 6 nM
15 | Fc1ccc(-c2nn3c(c2-c2ccnc4[nH]ncc24)CCC(F)(COC(F)(F)F)C3)nc1 (single isomer, unassigned) [Example 317, (*R)-4-[6-Fluoro-2-(5-fluoro-2-pyridyl)-6-(trifluoromethoxymethyl)-5,7-dihydro-4H-pyrazolo[1,5-a]pyridin-3-yl]-1H-pyrazolo[3,4-b]pyridine] | 8520 nM | 111 nM
16 | COCCC1(C)CCc2c(-c3ccnc4[nH]ncc34)c(-c3ccc(F)cn3)nn2C1 (single isomer, unassigned) [Example 318, (*S)-4-[2-(5-Fluoro-2-pyridyl)-6-(2-methoxyethyl)-6-methyl-5,7-dihydro-4H-pyrazolo[1,5-a]pyridin-3-yl]-1H-pyrazolo[3,4-b]pyridine] | 40 nM | 3 nM
17 | COCC[C@@]1(C)CCc2c(-c3ccnc4[nH]ncc34)c(-c3ccc(F)cn3)nn2C1 (single isomer, unassigned) [Example 319, (*R)-4-[2-(5-Fluoro-2-pyridyl)-6-(2-methoxyethyl)-6-methyl-5,7-dihydro-4H-pyrazolo[1,5-a]pyridin-3-yl]-1H-pyrazolo[3,4-b]pyridine] | 81 nM | 5 nM
18 | CC1(CC2COC2)CCc2c(-c3ccnc4[nH]ncc34)c(-c3ccc(F)cn3)nn2C1 (single isomer, unassigned) [Example 320, (*R)-4-(2-(5-Fluoropyridin-2-yl)-6-methyl-6-(oxetan-3-ylmethyl)-4,5,6,7-tetrahydropyrazolo[1,5-a]pyridin-3-yl)-1H-pyrazolo[3,4-b]pyridine] | 105 nM | 14 nM
19 | [2H]C([2H])([2H])[C@]1(C#N)CCc2c(-c3ccnc4[nH]ncc34)c(-c3ccc(F)cn3)nn2C1 (single isomer, unassigned) [Example 323, *S-2-(5-Fluoropyridin-2-yl)-6-(methyl-d3)-3-(1H-pyrazolo[3,4-b]pyridin-4-yl)-4,5,6,7-tetrahydropyrazolo[1,5-a]pyridine-6-carbonitrile] | 15 nM | 1 nM
20 | [2H]C([2H])([2H])[C@@]1(C#N)CCc2c(-c3ccnc4[nH]ncc34)c(-c3ccc(F)cn3)nn2C1 (single isomer, unassigned) [Example 324, (*R)-2-(S-Fluoropyridin-2-yl)-6-(methyl-d3)-3-(1H-pyrazolo[3,4-b]pyridin-4-yl)-4,5,6,7-tetrahydropyrazolo[1,5-a]pyridine-6-carbonitrile] | 112 nM | 37 nM
21 | Fc1ccc(-c2nn3c(c2-c2ccnc4[nH]ncc24)CCC2(C3)CC2(F)F)cc1 (single isomer, unassigned) [Example 325, (*R)-2,2-Difluoro-2′-(4-fluorophenyl)-3′-(1H-pyrazolo[3,4-b]pyridin-4-yl)-4′,5′-dihydro-7′H-spiro[cyclopropane-1,6′-pyrazolo[1,5-a]pyridine]] | 1 nM | 1 nM
22 | Fc1ccc(-c2nn3c(c2-c2ccnc4[nH]ncc24)CCC2(C3)CC2(F)F)cc1 (single isomer, unassigned) [Example 326, (*S)-2,2-Difluoro-2′-(4-fluorophenyl)-3′-1H-pyrazolo[3,4-b]pyridin-4-yl)-4′,5′-dihydro-7′H-spiro[cyclopropane-1,6′-pyrazolo[1,5-a]pyridine]] | 23 nM | 6 nM
23 | Fc1ccc(-c2nn3c(c2-c2ccnc4[nH]ncc24)CCC2(C3)CC2(F)F)nc1 (single isomer, unassigned) [Example 327, (*S)-2,2-Difluoro-2′-(5-fluoropyridin-2-yl)-3′-(1H-pyrazolo[3,4-b]pyridin-4-yl)-4′,5′-dihydro-7′H-spiro[cyclopropane-1,6′-pyrazolo[1,5-a]pyridine]] | 97 nM | 14 nM
